Measurements from ChEMBL document CHEMBL5625196, “Cell-active, irreversible covalent inhibitors that selectively target the catalytic lysine of EGFR by using fluorosulfate-based SuFEx chemistry” (Eur J Med Chem, 2023).

What was measured:
physchem [1] = settings: cell-culture medium
physchem [2] = settings: PBS
[3] = AUC (0 to infinity) in Sprague-Dawley rat at 2 mg/kg, iv measured after 24 hrs by LC-MS/MS analysis; type: ADME, organism-based; settings: in vivo
[4] = Half-life in Sprague-Dawley rat at 2 mg/kg, iv measured after 24 hrs by LC-MS/MS analysis; type: ADME, organism-based; settings: in vivo
[5] = AUC (0 to infinity) in Sprague-Dawley rat at 5 mg/kg, po measured after 24 hrs by LC-MS/MS analysis; type: ADME, organism-based; settings: in vivo
[6] = Apparent volume of distribution in Sprague-Dawley rat at 2 mg/kg, iv measured after 24 hrs by LC-MS/MS analysis; type: ADME, organism-based; settings: in vivo, read-out: Vz
[7] = Tmax in Sprague-Dawley rat at 5 mg/kg, po measured after 24 hrs by LC-MS/MS analysis; type: ADME, organism-based; settings: in vivo
in vitro [8] = settings: dog, MDCK-MDR1
[9] = AUC (0 to t) in Sprague-Dawley rat at 5 mg/kg, po measured after 24 hrs by LC-MS/MS analysis; type: ADME, organism-based; settings: in vivo
[10] = Oral bioavailability in Sprague-Dawley rat at 5 mg/kg measured after 24 hrs by LC-MS/MS analysis; type: ADME, organism-based; settings: in vivo
[11] = Cmax in Sprague-Dawley rat at 5 mg/kg, po measured after 24 hrs by LC-MS/MS analysis; type: ADME, organism-based; settings: in vivo
in vitro [12] = settings: dog, MDCK-MDR1; remark: listed apart in the source
[13] = Half-life in Sprague-Dawley rat at 5 mg/kg, po measured after 24 hrs by LC-MS/MS analysis; type: ADME, organism-based; settings: in vivo
in vitro [14] = settings: dog, MDCK-MDR1; remark: listed apart in the source
physchem [15] = settings: PBS; remark: listed apart in the source
physchem [16] = settings: PBS; remark: listed apart in the source
[17] = MRT in Sprague-Dawley rat at 5 mg/kg, po measured after 24 hrs by LC-MS/MS analysis; type: ADME, organism-based; settings: in vivo
[18] = Clearance in Sprague-Dawley rat at 2 mg/kg, iv measured after 24 hrs by LC-MS/MS analysis; type: ADME, organism-based; settings: in vivo
[19] = AUC (0 to t) in Sprague-Dawley rat at 2 mg/kg, iv measured after 24 hrs by LC-MS/MS analysis; type: ADME, organism-based; settings: in vivo
[20] = Volume of distribution at steady state in Sprague-Dawley rat at 2 mg/kg, iv measured after 24 hrs by LC-MS/MS analysis; type: ADME, organism-based; settings: in vivo, read-out: Vdss
[21] = MRT in Sprague-Dawley rat at 2 mg/kg, iv measured after 24 hrs by LC-MS/MS analysis; type: ADME, organism-based; settings: in vivo
in vitro [22] = settings: mouse, mouse liver microsomes
in vitro [23] = settings: dog, MDCK-MDR1; remark: listed apart in the source
[24] = dog, mdck-mdr1, 10 µM

SMILES: C=CS(=O)(=O)Nc1cccc(Nc2ncnc3cc(OCCOC)c(OCCOC)cc23)c1
- half-life (physchem [1]): > 24 h
- half-life (physchem [2]): > 24 h

SMILES: COCCOc1cc2ncnc(Nc3cccc(OS(=O)(=O)F)c3)c2cc1OCCOC
- AUC(0-inf) [3]: 1920 ng·h/mL
- half-life [4]: 0.93 h
- half-life (physchem [1]): 24 h
- AUC(0-inf) [5]: 1540 ng·h/mL
- Vd [6]: 1.4 L/kg
- Tmax [7]: 2.33 h
- recovery at 10 µM (in vitro [8]): 81.2%
- AUC(0-t) at 24 h [9]: 1530 ng·h/mL
- bioavailability [10]: 32%
- Cmax [11]: 444 ng/mL
- recovery at 10 µM (in vitro [12]): 86.8%
- half-life [13]: 0.81 h
- Papp A→B at 10 µM (in vitro [14]): 1.9 ×10⁻⁶ cm/s
- half-life (physchem [2]): > 8 h
- half-life (physchem [15]): > 8 h
- half-life (physchem [16]): > 12 h
- MRT [17]: 2.48 h
- clearance [18]: 17.4 mL/min/kg
- AUC(0-t) at 24 h [19]: 1920 ng·h/mL
- Vd [20]: 1.22 L/kg
- MRT [21]: 1.16 h
- half-life at 1 h (in vitro [22]): 0.493 h
- Papp B→A at 10 µM (in vitro [23]): 3.92 ×10⁻⁶ cm/s

SMILES: C[C@H]1O[C@@H](O[C@H]2[C@@H](O)C[C@H](O[C@H]3[C@@H](O)C[C@H](O[C@H]4CC[C@@]5(C)[C@H](CC[C@@H]6[C@@H]5C[C@@H](O)[C@]5(C)[C@@H](C7=CC(=O)OC7)CC[C@]65O)C4)O[C@@H]3C)O[C@@H]2C)C[C@H](O)[C@@H]1O [DIGOXIN]
- recovery at 10 µM (in vitro [8]): 97.9%
- recovery at 10 µM (in vitro [12]): 105%
- Papp [24]: 6.41 10^-6 cm/s
- Papp B→A at 10 µM (in vitro [23]): 18.5 ×10⁻⁶ cm/s
